Earlier results as cited in patent publication US7432380B2, “Crystalline form of Fluvastatin sodium” (Ciba Specialty Chemicals Corp., priority 2003, dated 2008).

Conditions: relative air humidity of surrounding atmosphere; from WO-A-03/13512

air humidity of atmospheres in which the form is stable: up to 90%
Structure (SMILES): CC(C)n1c(/C=C/[C@H](O)C[C@H](O)CC(=O)[O-])c(-c2ccc(F)cc2)c2ccccc21.[Na+] [Form F]
